Source: patent US8552069B2, “Method for treatment of obesity, dyslipidemia, fatty liver or insulin resistance syndrome comprising camphene as active ingredient” (Industry-Academic Cooperation Foundation, Yonsei University, priority 2009, dated 2013)
Marks after values point to notes of the source that are not given here.

Assays:
[1] = tested on: 3T3-L1 cells; test: Suppression of differentiation of 3T3-L1 preadipocytes into adipocytes (Oil Red O staining); format: cell-based, mouse; settings: camphene 0.1, 1, 10, 50 and 100 μM, 14 days
Protocol: Mouse 3T3-L1 cells were used to investigate the effect of camphene on differentiation and growth of adipocytes. The preadipocytes, 3T3-L1 cells, were seeded on a 12-well plate and cultured to confluency using Dulbecco's modified Eagle's medium (DMEM) containing 1% penicillin-streptomycin, 1% nonessential amino acid and 10% fatal bovine serum (FBS), in a 5% CO2 incubator at 37° C. The 3T3-L1 cells grown to confluency were cultured for 2 days in a medium containing MDI (0.5 mM isobutylmethylxanthine, 1 μM dexamethasone and 1 μg/mL insulin) to differentiate them into adipocytes. Then, the cells were further cultivated in DMEM containing 1 μg/mL insulin to differentiate them into mature adipocytes. The cells were further cultured for 10 more days while replacing DMEM every other day to obtain fully differentiated adipocytes. From the first day when MDI was added to the 3T3-L1 cells, camphene was treated at concentrations of 0.1, 1, 10, 50 and 100 μM with 2-day intervals. (±)-Camphene purchased from Sigma-Aldrich was used after being dissolved in DMSO. Only DMSO was added to the negative control group. […] In order to measure the level of triglyceride contained in the differentiated 3T3-L1 cells, the stained lipid droplets were dissolved in 1 mL of isobutanol and OD value was measured at 600 nm.

[2] = tested on: C57BL/6J mice; test: Body weight and visceral fat weight of mice fed high-fat diet containing camphene; format: in vivo, mouse; settings: 0.2% camphene in high-fat diet, 10 weeks
Protocol: (§1) The obesity-inducing diet used in this example was high-fat diet (HFD: 40% fat calorie, 17 g lard+3% corn oil/100 g diet). Camphene-containing diet had the same composition as HFD, except that camphene was included at 0.2%. Normal diet (ND) was prepared with the composition of AIN-76 rodent diet (American Institute of Nutrition, Report of the American Institute of Nutrition ad hoc committee on standards for nutritional studies. J. Nutr. 107: 1340-1348, 1977) (see Table 1). (±)-Camphene was purchased from Sigma-Aldrich. [table] 5-week-old male C57BL/6J mice (Orient, Korea) were accustomed to the laboratory environment for 1 week while feeding solid feed. Then, they were randomly divided into high-fat diet control group and test group and bred for a total of 10 weeks. The diet was given between 10 and 11 a.m. every day together with water. Diet intake was measured every day and body weight was measured once in 3 days. In order to avoid transient body weight increase after feed intake, body weight was measured 2 hours after removing the feed. Feeding efficiency was calculated by dividing accumulated body weight gain during the test period, i.e. from the test diet was given first until the day when the mouse was sacrificed, by total diet intake. After fasting the test animal for at least 12 hours and anesthetizing with diethyl ether, blood, liver and visceral fat (epididymal fat, perirenal fat, mesenteric fat and retroperitoneal fat) were taken and weighed after washing with 0.1 M PBS (pH 7.4). Blood taken from the abdominal aorta was centrifuged at 1000×g for 15 minutes to separate the serum.

[3] = tested on: C57BL/6J mice; test: Obesity-related biochemical indices in blood (serum) of high-fat diet mice; format: in vivo, mouse; settings: 10 weeks
Protocol: as §1, with “Sigma-Aldrich.” for “Sigma-Aldrich. [table]”, “serum. Total cholesterol, triglyceride and glucose levels in the serum were measured twice for each using a commercially available kit (Bio Clinical system), and insulin level was measured by ELISA using a mouse insulin kit (Shibayaki, Japan). Lipids were extracted from the liver tissue according to Folch et al.'s method. After adding 1 mL of distilled water to 0.25 g of liver tissue, the liver tissue was homogenized using a Polytron homogenizer (IKA-Werke GmbH & Co., Ultra-Turrax, Staufen, Germany). After adding 5 mL of chloroform:methanol solution (2:1, v/v) to the homogenate and mixing well, the mixture was centrifuged at 1000×g for 10 minutes. After adding 2 mL of chloroform:methanol solution (2:1, v/v) again to the supernatant, the same procedure was repeated to completely separate the lipid components of the liver. After adding 3 mL of chloroform:methanol:0.05% CaCl2 (3:48:47, v/v/v) solution to the remaining pellets and mixing well for 1 minute, followed by centrifugation at 1000×g for 10 minutes, the resulting pellets were completely dried with nitrogen gas. The dried lipids were dissolved in 1 mL of methanol and then analyzed. The same kit (Bio Clinical system) as the one used for the serum analysis was used to measure the triglyceride level of the liver tissue.” for “serum.”

[4] = tested on: C57BL/6J mice; test: Obesity-related biochemical indices in liver tissue of high-fat diet mice; format: in vivo, mouse; settings: 10 weeks
Protocol: as §1, with “Sigma-Aldrich.” for “Sigma-Aldrich. [table]”, “serum. Total cholesterol, triglyceride and glucose levels in the serum were measured twice for each using a commercially available kit (Bio Clinical system), and insulin level was measured by ELISA using a mouse insulin kit (Shibayaki, Japan). Lipids were extracted from the liver tissue according to Folch et al.'s method. After adding 1 mL of distilled water to 0.25 g of liver tissue, the liver tissue was homogenized using a Polytron homogenizer (IKA-Werke GmbH & Co., Ultra-Turrax, Staufen, Germany). After adding 5 mL of chloroform:methanol solution (2:1, v/v) to the homogenate and mixing well, the mixture was centrifuged at 1000×g for 10 minutes. After adding 2 mL of chloroform:methanol solution (2:1, v/v) again to the supernatant, the same procedure was repeated to completely separate the lipid components of the liver. After adding 3 mL of chloroform:methanol:0.05% CaCl2 (3:48:47, v/v/v) solution to the remaining pellets and mixing well for 1 minute, followed by centrifugation at 1000×g for 10 minutes, the resulting pellets were completely dried with nitrogen gas. The dried lipids were dissolved in 1 mL of methanol and then analyzed. The same kit (Bio Clinical system) as the one used for the serum analysis was used to measure the triglyceride level of the liver tissue.” for “serum.”

[5] = tested on: C/EBPα; test: RT-PCR mRNA expression in epididymal (visceral) fat tissue: C/EBPα; format: in vivo, mouse; settings: as compared to the high-fat diet group, FIGS. 5a and 5b
Protocol: (§2) After adding 1 mL of TRIzol solution per 0.1 g of epididymal fat tissue, centrifugation was performed at 4° C. and 12,000×g for 10 minutes. The supernatant was transferred to a fresh tube and vortexed after adding 200 μL of chloroform. After repeating this procedure twice, the supernatant was transferred to a fresh tube and isopropanol was added to the supernatant at a ratio of 1:1. After shaking strongly for 10 times and keeping at room temperature for 10 minutes, centrifugation was performed at 4° C. and 12,000×g for 10 minutes. After removing the supernatant and adding 1 mL of 70% ethanol to the remaining pellets, centrifugation was performed at 4° C. and 7,500×g for 5 minutes. After removing ethanol, the RNA pellets held in the tube were dried at room temperature for 5 minutes and dissolved using nuclease-free water. The concentration of the extracted RNA was measured at 260 nm and 280 nm using a UV/VIS spectrophotometer (Beckman Coulter, DU730), and the integrity of RNA was analyzed by agarose gel electrophoresis.
(§3) cDNA was synthesized by performing reverse transcription for the RNA sample extracted from the epididymal fat tissue using oligo-dT primer and SuperScript reverse transcriptase (GIBCO BRL, Gaithersburg, Md., USA). […]

[6] = tested on: PPARγ2; test: RT-PCR mRNA expression in epididymal (visceral) fat tissue: PPARγ2; format: in vivo, mouse; settings: as compared to the high-fat diet group, FIGS. 5a and 5b
Protocol: as §2, §3

[7] = tested on: aP2; test: RT-PCR mRNA expression in epididymal (visceral) fat tissue: aP2; format: in vivo, mouse; settings: as compared to the high-fat diet group, FIGS. 5a and 5b
Protocol: as §2, §3

[8] = tested on: TNFα; test: RT-PCR mRNA expression in visceral fat tissue: TNFα; format: in vivo, mouse; settings: versus HFD group, FIGS. 6a and 6b
Protocol: as §2, §3

[9] = tested on: IL-6; test: RT-PCR mRNA expression in visceral fat tissue: IL-6; format: in vivo, mouse; settings: versus HFD group, FIGS. 6a and 6b
Protocol: as §2, §3

[10] = tested on: UCP1; test: RT-PCR mRNA expression in visceral fat tissue: UCP1; format: in vivo, mouse; settings: versus HFD group, FIG. 7
Protocol: as §2, §3

[11] = tested on: UCP3; test: RT-PCR mRNA expression in visceral fat tissue: UCP3; format: in vivo, mouse; settings: versus HFD group, FIG. 7
Protocol: as §2, §3

[12] = tested on: NF-κB; settings: mouse macrophage cells (RAW 264.7); cited from earlier work
[13] = tested on: Gram-positive bacteria, Gram-negative bacteria and fungi; settings: cited from earlier work
[14] = blood, camphene-administered group
[15] = liver tissue, camphene-administered group

**Q.** For `C=C1C2CCC(C2)C1(C)C` (racemic) [camphene], which “differentiation of the preadipocytes (Oil Red O staining)” value ([1]; FIG. 1a) is on record?
**A.** reduced the differentiation of the preadipocytes in a concentration-dependent manner

**Q.** And the “OD value (600 nm) of fats stained with Oil Red O” value ([1]; FIG. 1b)?
**A.** decreased in a concentration-dependent manner

**Q.** What about the “lower accumulated body weight gain as compared to HFD control group” value [2] of the same compound?
**A.** 58%

**Q.** What about the “lower final body weight as compared to HFD control group” value [2] of the same compound?
**A.** 33%

**Q.** And the “lower epididymal fat weight per body weight as compared to HFD” value ([2]; P<0.001)?
**A.** 46%

**Q.** And the “lower mesenteric fat weight per body weight as compared to HFD” value ([2]; P<0.001)?
**A.** 61%

**Q.** What about the “lower perirenal fat weight per body weight as compared to HFD” value ([2]; P<0.001) of the same compound?
**A.** 76%

**Q.** What about the “lower retroperitoneal fat weight per body weight as compared to HFD” value ([2]; P<0.001) of the same compound?
**A.** 48%

**Q.** What about the “lower total visceral fat weight per body weight as compared to HFD” value ([2]; P<0.001) of the same compound?
**A.** 52%

**Q.** And the “lower arteriosclerotic index as compared to HFD” value ([3]; 0.2% camphene in high-fat diet)?
**A.** 59%

**Q.** What about the “lower fasting blood sugar level as compared to HFD” value ([3]; 0.2% camphene in high-fat diet) of the same compound?
**A.** 10%

**Q.** And the “lower insulin resistance (IRI) as compared to HFD” value ([3]; 0.2% camphene in high-fat diet)?
**A.** 40%

**Q.** And the “lower serum LDL+VLDL cholesterol level as compared to HFD” value ([3]; 0.2% camphene in high-fat diet)?
**A.** 79%

**Q.** And the “lower serum free fatty acid level as compared to HFD” value ([3]; 0.2% camphene in high-fat diet)?
**A.** 86%

**Q.** What about the “lower serum insulin level as compared to HFD” value ([3]; 0.2% camphene in high-fat diet) of the same compound?
**A.** 32%

**Q.** What about the “lower serum total cholesterol level as compared to HFD” value ([3]; 0.2% camphene in high-fat diet) of the same compound?
**A.** 60%

**Q.** And the “lower serum triglyceride level as compared to HFD” value ([3]; 0.2% camphene in high-fat diet)?
**A.** 69%

**Q.** And the “IRI (insulin resistance index)” value ([3]; 10^−3 pmol insulin × mmol glucose × L^−2, camphene-administered group)?
**A.** 1.11 ± 0.21^b

**Q.** What about the Arteriosclerotic index ([3]; (total cholesterol − HDL cholesterol)/HDL cholesterol, camphene-administered group) of the same compound?
**A.** 0.42 ± 0.03^b

**Q.** What about the Free fatty acid [3, 14] of the same compound?
**A.** 197 ± 6.7^c μEq/L

**Q.** What about the HDL cholesterol [3, 14] of the same compound?
**A.** 1.02 ± 0.04^c mmol/L

**Q.** And the Insulin [3, 14]?
**A.** 0.85 ± 0.23^b ng/mL

**Q.** And the “LDL + VLDL cholesterol” value [3, 14]?
**A.** 0.44 ± 0.05^b mmol/L

**Q.** And the Total cholesterol [3, 14]?
**A.** 1.55 ± 0.11^b mmol/L

**Q.** And the Triglyceride [3, 14]?
**A.** 0.44 ± 0.05^b mmol/L

**Q.** What about the Glucose ([3]; blood, fasting, camphene-administered group) of the same compound?
**A.** 7.6 ± 0.51^ab mmol/L

**Q.** And the “lower cholesterol level in the liver tissue as compared to HFD” value ([4]; 0.2% camphene in high-fat diet)?
**A.** 86%

**Q.** What about the “lower free fatty acid level in the liver tissue as compared to HFD” value ([4]; 0.2% camphene in high-fat diet) of the same compound?
**A.** 73%

**Q.** And the “lower liver weight per body weight as compared to HFD” value ([4]; 0.2% camphene in high-fat diet)?
**A.** 22%

**Q.** And the “lower triglyceride level in the liver tissue as compared to HFD” value ([4]; 0.2% camphene in high-fat diet)?
**A.** 58%

**Q.** And the Liver weight ([4]; camphene-administered group)?
**A.** 4.3 ± 0.32^b g/100 g body wt

**Q.** And the Cholesterol [4, 15]?
**A.** 10.3 ± 2.6^c μmol/g

**Q.** What about the Free fatty acid [4, 15] of the same compound?
**A.** 6.5 ± 0.91^b μEq/g

**Q.** And the Triglyceride [4, 15]?
**A.** 14.7 ± 2.3^c μmol/g

**Q.** And the “C/EBPα mRNA expression in visceral fat tissue” value [5]?
**A.** significantly decreased expression

**Q.** And the “PPARγ2 mRNA expression in visceral fat tissue” value [6]?
**A.** significantly decreased expression

**Q.** What about the “aP2 mRNA expression in visceral fat tissue” value [7] of the same compound?
**A.** significantly decreased expression

**Q.** And the “TNFα gene expression in visceral fat tissue” value [8]?
**A.** decreased expression of TNFα and IL-6 genes back to the level of the ND group

**Q.** What about the “IL-6 gene expression in visceral fat tissue” value [9] of the same compound?
**A.** decreased expression of TNFα and IL-6 genes back to the level of the ND group

**Q.** And the “UCP1 gene expression in visceral fat tissue” value [10]?
**A.** increased expression

**Q.** And the “UCP3 gene expression in visceral fat tissue” value [11]?
**A.** increased expression

**Q.** What about the “activity of the inflammation-inducing factor NF-κB” value [12] of the same compound?
**A.** suppressing the activity

**Q.** And the “growth of Gram-positive bacteria, Gram-negative bacteria and fungi” value [13]?
**A.** inhibiting growth
